We go through 13 molecules from PMC11771932, “Integrated in silico and in vitro exploration of the anti-VEGFR-2 activities of a semisynthetic xanthine alkaloid inhibiting breast cancer” (PLOS ONE, 2025).

Read-outs that look alike come from different tables or passages of the source.

The subject of series [1] is Rat. Conditions: cited from earlier work.
The subject of a further series is Mouse. On the set-up: method as in earlier work. The settings on record: structural similar compounds of the TOPKAT report; ref CPDB; cited from earlier work.
The next series has as its system Rats. The settings on record: structural similar compounds of the TOPKAT report; ref NIIRDN 6;688;82, 85ARAE 4;118;76/77, DRFUD4 2;393;77, YRTMA6 9;11;78, FMCHA2 -;C149;89, ARZNAD 30;2023;80; cited from earlier work.
In series [2] the test system is Rat. The settings on record: structural similar compounds of the TOPKAT report; ref NCI/NTP TR-358, NCI/NTP TR-138, NCI/NTP TR-336; cited from earlier work.
Series [3] has as its system MCF7 cells. Kind of series: Apoptosis assay, flow cytometry, Annexin V and PI double staining. The class given is cell-based. How it is done: The T-1-NBAB’s effect as an apoptotic agent was assessed via flow cytometry analysis, on MCF7 cells using Annexin V and PI double staining.
T-1-NBAB’s apoptotic potentials and effect on MCF7 cell cycle were accomplished by flow cytometry analysis technique.
In-vitro anticancer activity
Anticancer activities of the tested compounds against MCF7 and T47D cell lines were quantified using MTS assay kit (Promega) as described by the Manufacturer.
The selectivity index values of the tested compounds on cancer cells were calculated as described by Koch et al., with slight modifications; SI=IC50nc/IC50cc, where IC50nc: the IC50 value of the tested compound on normal cells and IC50cc: IC50 of the tested compound on cancer cell […]
In vitro EGFR kinase assay
The synthesized compound was estimated for their in vitro inhibition on human VEGFR-2 in MCF- 7 cell line; using ELISA kit. Firstly, a plate was used for the assay had been coated by an […]
2 inhibitor. Both standard and sample were added to the wells and incubated overnight at 4 ◦C, then washed. The biotinylated antibody was supplemented and further incubated for 1 h at room temperature. The unreacted, liberated antibody was then washed; followed by addition of HRP-conjugated streptavidin and incubated for 45 min at room temperature. Wells were washed and a TMB substrate solution was added and kept at room temperature for 30 min. Finally, the stop solution was added, and the intensity of the color produced was measured at 450 nm.
Concentration- inhibition response curve was established by GraphPad Prism 5.0. The IC 50 value was calculated as the concentration at which 50% of the cells could survive in comparison to […]
Flow cytometry analysis for apoptosis
Flow cytometry cell apoptosis analysis was used to investigate the apoptotic effect of the synthesized compound. […] The stained cells were measured using Epics XL-MCL™ Flow Cytometer and analyzed […]

Series [4] relates to MCF7 cells. Kind of series: Wound healing and migration assay. The class given is cell-based. On the procedure: The wound healing assay, a simple and cost-effective procedure, can assess the mobility and repair capacity of cancerous cells. In this method, a scratch is created on a layer of cancer cells, and the initial width is recorded. The healing of the scratch was observed periodically for both untreated and treated cells. Throughout the study, images of the scratched areas from both groups were compared at the 0-hour and 48-hour time points.
Wound healing assay was accomplished for T-1-NBAB utilizing MCF7 cell lines. […]
Wound healing and migration assay
The wound healing assay allows the researcher to study cell migration and cell interactions. In […]
some cases also single cell migration can be analyzed and this assay can be imaged […]
1. Cells were seeded in 6 multi-well plates and cultured until confluent. It is important that all the cultures are confluent at the start of the experiment.
2. (yellow) pipette tip was used to make a straight scratch, simulating a wound. Often we make a scratch keeping the pipette tip under an angle of around 30 degrees to keep the scratch width limited. This allows imaging of both wound edges using the 10x objective.
The following equations are applied to calculate the healing and migration ratio Rat of migration (RM) = (wi – wf ) / t
Wi =average of intial wound width um
Wf= average of final wound width um
T = time span of the assay in hours
Percentage of wound clouser % ={ (At=0 – At=∆t ) / At=0 } 100 […]
At=∆t = wound area after n hours
Area difference % = (Ai – Af )

A further series has as its target T1, human VEGFR-2 (Homo sapiens, UniProt P35968).
T1 construct: MCF- 7 cell line; endogenous in cells; host or cells: MCF-7
Kind of series: In vitro VEGFR-2 inhibition (Human VEGFR-2 ELISA kit). The class given is biochemical.

For a further series, the system named is MCF7 cell line. Kind of series: In vitro cytotoxicity, MCF7. The class given is cell-based. How it is done: (§1) The potential of T-1-NBAB as an anticancer agent has been highlighted through both in silico and in vitro studies, primarily due to its anti-VEGFR-2 properties. To further investigate T-1-NBAB’s cytotoxicity, it was tested against breast carcinoma epithelial cancer cell lines MCF7 and T47D.
(§2) The cytotoxic potential of T-1-NBAB against MCF7 and T47D cell lines was accomplished by MTT procedure.
(§3) Mammalian cell lines culture
(§4) MCF7 and T47D cell lines were cultured on DMEM media. The cultured media were supplemented with 200 mM L-glutamine, 10.0% fetal bovine serum (Lonza), and 1.0% penicillin/streptomycin. Cells were seeded into 25.0 cm tissue culture flasks and incubated at 37◦C in a 5.0% CO2 incubator for 24 h or till confluency.
(§5) The safety profiles of the tested compounds were checked on one non-cancerous cell line (vero) […]
(§6) A portion of 100.0 µl of 6×10^4 cell/ml cells was seeded into each well of a 96-well plate and then the plates were incubated at 37 °C in a humidified 5.0% CO2 incubator for 24 h. […]
(§7) The inoculated plates were incubated at the same growth conditions for another 24 h. At the end of incubation, cellular viability was assessed using MTS assay kit (Promega) according to […]
(§8) Anticancer activities of the tested compounds against MCF7 and T47D cell lines were quantified using MTS assay kit (Promega) as described by the Manufacturer. […]

A further series deals with T47D cell line. Kind of series: In vitro cytotoxicity, T47D. It is filed as cell-based. On the procedure: as §1, §2, §3, §4, §5, §6, §7, §8
Series [5] relates to Vero (normal epithelial) cell lines. Kind of series: Safety assay on non-cancerous Vero cells. Conditions: Chlorocebus sabaeus, read-out: IC50 against Vero. The class given is cell-based. On the procedure: as §1
The cytotoxic potential of T-1-NBAB against non-cancerous (Vero) cell lines was accomplished by MTT procedure.
as §3, §4, §5
A portion of 100.0 µl of 6×10^4 cell/ml cells was seeded into each well of a 96-well plate and then the plates were incubated at 37 °C in a humidified 5.0% CO2 incubator for 24 h. At the end of incubation period, the exhausted medium was replaced with 100.0 µl of different concentrations of the designated treatment (prepared in RPMI medium starting from 1.0 mM).
as §7

For a further series, the system named is VEGFR-2. On the set-up: method as in PMID 35493991. The settings on record: read-out: VEGFR-2 inhibition IC50; cited from earlier work.
Setting [6] is: structural similar compounds of the TOPKAT report, ref CPDB.

T1 sequence (P35968 20-1356): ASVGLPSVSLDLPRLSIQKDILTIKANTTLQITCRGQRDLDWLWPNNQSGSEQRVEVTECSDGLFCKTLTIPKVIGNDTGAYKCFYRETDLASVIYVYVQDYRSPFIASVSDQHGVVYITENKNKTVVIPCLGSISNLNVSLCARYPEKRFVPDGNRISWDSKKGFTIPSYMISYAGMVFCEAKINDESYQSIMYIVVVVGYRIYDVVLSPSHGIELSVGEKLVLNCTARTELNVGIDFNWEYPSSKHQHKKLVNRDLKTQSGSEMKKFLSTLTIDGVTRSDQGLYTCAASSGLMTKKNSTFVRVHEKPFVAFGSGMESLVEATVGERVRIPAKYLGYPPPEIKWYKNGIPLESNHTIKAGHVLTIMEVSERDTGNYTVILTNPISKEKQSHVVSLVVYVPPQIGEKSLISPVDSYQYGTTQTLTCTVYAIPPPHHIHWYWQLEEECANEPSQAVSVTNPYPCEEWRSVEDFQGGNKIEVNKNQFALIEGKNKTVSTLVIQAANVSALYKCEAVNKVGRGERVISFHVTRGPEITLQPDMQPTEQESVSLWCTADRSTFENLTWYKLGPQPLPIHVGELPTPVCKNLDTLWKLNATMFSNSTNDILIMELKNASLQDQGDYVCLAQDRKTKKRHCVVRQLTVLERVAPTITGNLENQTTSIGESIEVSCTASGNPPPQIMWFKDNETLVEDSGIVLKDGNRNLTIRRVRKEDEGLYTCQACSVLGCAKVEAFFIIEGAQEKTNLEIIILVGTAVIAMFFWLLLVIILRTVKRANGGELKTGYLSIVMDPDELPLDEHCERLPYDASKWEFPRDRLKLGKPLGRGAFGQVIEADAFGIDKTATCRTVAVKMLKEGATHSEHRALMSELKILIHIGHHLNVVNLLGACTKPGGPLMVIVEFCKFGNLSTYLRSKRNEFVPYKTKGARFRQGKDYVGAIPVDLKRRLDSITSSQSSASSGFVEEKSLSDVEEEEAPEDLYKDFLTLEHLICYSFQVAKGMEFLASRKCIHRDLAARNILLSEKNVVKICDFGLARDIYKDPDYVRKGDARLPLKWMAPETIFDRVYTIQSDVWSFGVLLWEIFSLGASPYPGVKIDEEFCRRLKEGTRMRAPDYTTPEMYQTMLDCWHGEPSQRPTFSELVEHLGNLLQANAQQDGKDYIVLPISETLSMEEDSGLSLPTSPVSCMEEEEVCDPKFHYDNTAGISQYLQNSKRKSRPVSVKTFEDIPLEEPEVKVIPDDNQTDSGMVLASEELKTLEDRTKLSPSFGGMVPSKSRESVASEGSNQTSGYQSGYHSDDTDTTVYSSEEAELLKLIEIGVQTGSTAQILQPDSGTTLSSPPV

Consider `O=[N+]([O-])c1ccc(-c2nc(N(CCO)CCO)c3ccccc3n2)s1` [4-Bis(2-hydroxyethyl)amino-2-(5-nitro-2-thienyl)quinazoline], for which the “Carcinogenic potency TD50 rat, Actual Endpoint (-log C)” value with Rat [1] (setting [6]) is recorded as 5.06 -log C.
As for `Cc1cccc(Nc2cc(Cl)nc(SCC(=O)NCCO)n2)c1C` [4-Chloro-6-(2,3-xylidino)-2-pyrimidinylthio(N-b-hydroxyethyl) acetamide], the “Carcinogenic potency TD50 mouse, Actual Endpoint (-log C)” value with Mouse is reported as 3.915 -log C.
Take `CC(C)(Oc1ccc(CCNC(=O)c2ccc(Cl)cc2)cc1)C(=O)O` [BEZAFIBRATE]: the “Rat oral LD50, Actual Endpoint (-log C)” value in the series on Rats is on record as 1.946 -log C.
As to `COC(=O)Nc1nc2ccccc2n1C(=O)NCCCCCC#N` [CARBAMIC ACID; [1-[(5-CYANOPENTYL)CARBAMOYL]BENZIMIDAZOL-2-YL]-; METHYL ESTER], the “Rat oral LD50, Actual Endpoint (-log C)” value in the series with Rats is on record as 2.12 -log C.
On to `COC(=O)Nc1nc2cc(C(=O)c3ccc(F)cc3)ccc2[nH]1` [FLUBENDAZOLE], for which the “Rat oral LD50, Actual Endpoint (-log C)” value in the series on Rats is reported as 2.088 -log C.
In the case of `CC(C)n1c(/C=C/C(O)CC(O)CC(=O)O)c(-c2ccc(F)cc2)c2ccccc21` (stereo not drawn) [Fluvastatin, reference compound], the “Carcinogenic potency TD50 rat, Actual Endpoint (-log C)” value in the series on Rat [1] is given as 3.517 -log C.
As for `C[C@@H]1Cc2c(Cl)cc(C(=O)N[C@@H](Cc3ccccc3)C(=O)O)c(O)c2C(=O)O1` [OCHRATOXIN], the “Rat maximum tolerated dose gavage, Actual Endpoint (-log C)” value in the series on Rat [2] was 6.284 -log C.
With `C[C@@H]1Cc2c(Cl)cc(C(=O)N[C@@H](Cc3ccccc3)C(=O)O)c(O)c2C(=O)O1` [Ochratoxin A], the “Carcinogenic potency TD50 mouse, Actual Endpoint (-log C)” value in the series with Mouse is reported as 4.799 -log C. The “Carcinogenic potency TD50 rat, Actual Endpoint (-log C)” value in the series on Rat [1] (setting [6]) is listed as 6.473 -log C.
With `NS(=O)(=O)c1cc(C(=O)O)cc(N2CCCC2)c1Oc1ccccc1` [PIRETANIDE], the “Rat oral LD50, Actual Endpoint (-log C)” value with Rats is 1.811 -log C.
On to `Cc1noc(NS(=O)(=O)c2ccc(N)cc2)c1C` [SULFISOOXAZOLE], for which the “Rat maximum tolerated dose gavage, Actual Endpoint (-log C)” value in the series with Rat [2] was 2.825 -log C.
Regarding `Cn1cnc2c1c(=O)n(CC(=O)Nc1ccc(C(=O)NCc3ccccc3)cc1)c(=O)n2C` [T-1-NBAB], the “Apoptosis Late” value in the series with MCF7 cells [3] (control 0.12) turned out to be 2.88%. Further, in the series with MCF7 cells [3] (control 0.72), the “Apoptosis Early” value was 3.51%. The Necrosis in the series on MCF7 cells [3] (control 2.21) is recorded as 9.37%. In addition, in the series with MCF7 cells [4] (0 h vs 48 h, control 659.8333), the area difference worked out at 112 µm². Besides, the “RM (rate of migration)” value with MCF7 cells [4] (48 h, control 13.74681) is recorded as 2.322 µm/h. Also, the Wound closure % in the series on MCF7 cells [4] (48 h, control 65.96135) turned out to be 12.16%. Moreover, in the series with MCF7 cells [4] (mean of five values), the “Scratch area at 0h” value is on record as 917, the “Scratch area at 48 h” value amounted to 805.5, the “Scratch width at 0h” value came to 916.0155 and the “Scratch width at 48 h” value is 804.5532. The “Reduction of scratch width after 48 hours” value in the series on MCF7 cells [4] (untreated control closed 65.9%) is 12%. Moreover, the concentration for half-maximal inhibition (IC50) against human VEGFR-2 came to 0.115 µM. Besides, in the series with MCF7 cell line (Homo sapiens, breast cancer cell line MCF7, read-out: IC50 against MCF7), the IC50 is 16.9 µM. The “Selectivity index (SI) against MCF7” value in the series on MCF7 cell line (IC50 normal cells (Vero) / IC50 MCF7) is recorded as 4.1. Also, in the series on T47D cell line (Homo sapiens, breast cancer cell line T47D, read-out: IC50 against T47D), the half-maximal inhibitory concentration (IC50) is 61.2 µM. For the same molecule, in the series with T47D cell line (IC50 normal cells (Vero) / IC50 T47D), the “Selectivity index (SI) against T47D” value is 1.1. Moreover, the IC50 in [5] was 68.4 µM.
As to `CC1(C)S[C@@H]2[C@H](NC(=O)COc3ccccc3)C(=O)N2[C@H]1C(=O)O` [[…]], the “Rat maximum tolerated dose gavage, Actual Endpoint (-log C)” value in the series with Rat [2] was 2.545 -log C.
For `Cc1nc2ccccc2n(CC(=O)Nc2ccc(C(=O)Nc3cccc(Cl)c3)cc2)c1=O` [compound V], in the series on VEGFR-2, the IC50 is 0.0027 µM.
